Measured values: EP0164699A2, “1,2-Beta-methylene-4-androstene and 4,6-androstadiene-3,17-dione” (SCHERING AKTIENGESELLSCHAFT, priority 1984, dated 1985)

Test system: Aromatase
Experiment: Aromatase inhibition: reduction of PMSG-stimulated estradiol secretion in rats (serum estradiol by radioimmunoassay)
Format: in vivo, Ratten
Conditions: serum of 20-day-old female rats pretreated 7 times with 100 I.U. PMSG s.c.; test substance injected 1 h before and 8 h after last PMSG; killed 24 h after last PMSG; comparison with substance A
Text: Die durch PMSG (Pregnant Mare's Serum Gonadotropin) vermehrte Sekretion von Östradiol kann durch Applikation von Aromatasehemmern vermindert werden.
Versuch und Auswertung wurden wie folgt durchgeführt: • 20 Tage alte weibliche Ratten wurden alle 2 Tage insgesamt 7 mal mit 100 I.U. PMSG subcutan vorbehandelt. Eine Stunde vor und 8 Stunden nach der letzten PMSG-Applikation (d12) erhielten die Tiere die Testsubstanz durch Injektion. 24 Stunden nach der letzten PMSG-Applikation wurden die Tiere getötet. Im Serum wurde dann Östradiol radioimmunologisch bestimmt. In der folgenden Tabelle wird die Östradiolkonzentration in nMol/1 und die Standardabweichung angegeben. [formula]

| Compound | Östradiolkonzentration |
| --- | --- |
| C[C@]12CC[C@H]3[C@@H](CCC4=CC(=O)[C@H]5CC5[C@@]43C)[C@@H]1CCC2=O (some centres unmarked) [B, 1,2ß-Methylen-4-androsten-3,17-dion] | einen stärkeren Abfall der Östradiolkonzentration bewirken als die bekannte Substanz A |
| C[C@]12CC[C@H]3[C@@H](C=CC4=CC(=O)[C@H]5CC5[C@@]43C)[C@@H]1CCC2=O (some centres unmarked) [C, 1,2ß-Methylen-androsta-4,6-dien-3,17-dion] | einen stärkeren Abfall der Östradiolkonzentration bewirken als die bekannte Substanz A |
